# According to patent publication US12404291B2, “Antimicrobial agent” (priority 2019, dated 2025):
# How the values were obtained:
# HPRT = HPRT forward mutation assay; format: cell-based; conditions: concentrations above the compounds MIC's
# Source text: It is therefore confirmed that the compounds are non-mutagenic to mammalian DNA.
# physchem = format: physicochemical; conditions: pH 7.4, aqueous buffer, kinetic from dmso stock
# Method: Table 12 illustrates the kinetic solubility of complexes 4^2+ and 4^4+ were tested and compared to a soluble positive control drug (Nicardipine). Both compounds passed the DMPK analysis with an optimal solubility and kinetic stability.
# [1] = system: E. coli wild type (MG1655); assay: MIC and MBC determination; format: cell-based
# Method: (§1) The bioactivity of these compounds was investigated with respect to the wild type K12-derivative MG1655 and uropathogenic multidrug resistant EC958 ST131 strains of E. coli. Another gram-positive bacteria, ESKAPE bacteria—the pathogenic gastrointestinal strain of Enterococcus faecalis, V583 (ATCC700802)—which is a major opportunistic pathogen (and a leading cause of urinary tract infections) was also tested with respect to the compounds. The minimum inhibitory concentration, MIC, of the four complexes was obtained in both glucose defined minimal media (GDMM) and nutrient rich Mueller-Hinton-II (MH-II) (FIG. 7).
# (§2) The same parameters and conditions used above to determine MIC and MBC values with respect to compounds 1^4+ to 4^4+ were employed in order to test the MIC and MBC values of complexes 1^2+ to 4^2+.
# (§3) The MIC and MBC values were determined as above.
# [2] = system: E. faecalis pathogenic (V583); assay: MIC and MBC determination; format: cell-based, Enterococcus faecalis
# Method: as §1, §2, §3
# K. pneumonia biofilm = assay: Biofilm activity profile (MBEC); format: cell-based; conditions: Gram-negative biofilm
# P. aeruginosa biofilm = assay: Biofilm activity profile (MBEC); format: cell-based; conditions: Gram-negative biofilm
# A. baumannii biofilm = assay: Biofilm activity profile (MBEC); format: cell-based; conditions: Gram-negative biofilm
compound,measurement,setting,value
N.N.[Cl][Pt][Cl] [Cisplatin],Mutations,HPRT,65.5 per 1 × 10^5 viable cells
COC(=O)C1=C(C)NC(C)=C(C(=O)OCCN(C)Cc2ccccc2)C1c1cccc([N+](=O)[O-])c1 (stereo not drawn) [Nicardipine],solubility,physchem,20.8 µM
same,solubility,physchem; Solubility,20.8 µM
CC1(C)S[C@@H]2[C@H](NC(=O)[C@H](N)c3ccccc3)C(=O)N2[C@H]1C(=O)O [ampicillin],MBC,"[1]; Escherichia coli, MG1655, GDMM",11.4 µM
same,MBC,[1]; MH-II,11.4 µM
same,MIC,"[2]; Enterococcus faecalis, MH-II",0.5 µM
same,MBC,"[2]; Enterococcus faecalis, GDMM",6.3 µM
same,MIC,"[2]; Enterococcus faecalis, GDMM",1 µM
same,MBC,[2]; MH-II,6.3 µM
Gentamicin,Minimum Biofilm Eradication Concentration (MBEC),K. pneumonia biofilm,18 µM
same,Minimum Biofilm Eradication Concentration (MBEC),P. aeruginosa biofilm,18 µM
same,Minimum Biofilm Eradication Concentration (MBEC),A. baumannii biofilm,9 µM
